Among the data in a melting point compilation (Tetko et al.; mined from patent text by program, amines drawn as free bases though some values may be those of a salt) are melting point values, retold here.

By melting point is commonly meant the temperature of the solid-liquid transition. Regarding `COc1cccc(OC)c1C(=O)Nc1nnc(-c2ccc(O)cc2)s1`, the melting point is greater than 260 °C.

With `O=C(O)CCC/C=C/c1ccc(-c2ccccc2)cc1`, the melting point was in the range of 107 to 109 °C.

With `O=C1c2ccccc2C(O)(c2ccccc2)N1CC(c1ccccc1)c1ccccc1` (configuration not stated), the melting point is 230 °C.

For the compound `COC(=O)c1cccc(-c2cccc(Oc3ccc(Cl)cc3Cl)n2)c1`, the melting point fell in the range of 112 to 113 °C.

`Cc1nc2ccc(S(=O)(=O)n3c(COC(C)C(=O)O)cc4cc(C(F)(F)F)ccc43)cc2s1` (configuration not stated) registered a melting point of 146 to 148 °C.

In the case of `O=C(O)C1=Cc2cc(Cl)cnc2NC1C(F)(F)F` (configuration not stated), the melting point was in the range of 287 to 288 °C.

In the case of `ON=Cc1cc(Br)ccc1OCc1ccccc1`, the melting point was 132 to 134 °C.

Take `C=C1CC(c2ccc(Br)s2)N(C)C1=O` (configuration not stated): the melting point lay in the range of 177 to 180 °C.

`COc1cc2cc3c(=O)[nH]cnc3cc2cc1OCCN1CCOCC1`: the melting point lay in the range of 230 to 232 °C.

In turn, `O=S1c2ccccc2N(CCCCl)c2ccccc21` displayed a melting point of 171 to 173 °C.

The compound `COc1c(-c2ccccc2)c(C(=O)c2ccc(O)c(Br)c2)n2ccccc12` returned a melting point of 205 °C.

On to `O=c1n(CCCCN2CCN(c3cccc(Cl)c3)CC2)nc2ccccn12`, for which the melting point lay in the range of 122 to 123 °C.

In turn, `OC(CNCCNc1ccc(Cl)nn1)COc1ccccc1` (configuration not stated) yielded a melting point of 147 to 149 °C.

Regarding `Cc1c(Nc2c(C#N)cncc2-c2cc3cc(CN4CCCCC4)ccc3s2)ccc2[nH]ccc12`, the melting point lay within 174 to 175 °C.

Compound `COC(=O)c1ccccc1S(=O)(=O)N(n1cnn(-c2nc(OC)cc(OC)n2)c1=O)S(=O)(=O)c1ccccc1C(=O)OC` showed a melting point of 176 °C.

In the case of `CCCCCCCCCCCCc1nnn(C(CCCC)C(=O)Nc2c(OC)cc(OC)cc2OC)n1` (configuration not stated), the melting point lay in the range of 152 to 154 °C.

As to `CNC(=O)COc1cccc2c1S(=O)(=O)N=C2C1=C(O)C(C(C)(C)C)N(Cc2ccc(F)cc2)C1=O` (configuration not stated), the melting point was greater than 225 °C.

As for `CC(C)C1(COC(C)(C)C)Cc2cc(OCC(=O)O)c(Cl)c(Cl)c2C1=O` (configuration not stated), the melting point was 148 to 149 °C.

Compound `CC(C)(COc1ccc([N+](=O)[O-])cc1)N1CC(COc2cccc(Cl)c2)OC1=O` (configuration not stated) displayed a melting point of 108 to 112 °C.

For `CC1(C)c2ccccc2-c2[nH]c3ccccc3c21`, the melting point stood at 160 °C.

As to `CCCc1nc(N2CCOCC2)nc(N(CCOC(C)=O)C(C)=O)n1`, the melting point was in the range of 49 to 50 °C.

For `O=C(NC1CCc2ccccc21)c1ccc2cnccc2n1` (configuration not stated), the melting point was 156 to 157 °C.

`O=C(Nc1cccc(-c2ccnc3c(C(=O)c4cccs4)cnn23)c1)c1cccnc1`: the melting point fell in the range of 191 to 194 °C.

Compound `Fc1ccc(N2CCC(N3CCc4ccccc43)CC2)cc1` gave a melting point of 120 to 122 °C.

Regarding `CC(C)(C)OC(=O)NN=C1CCN(C(=O)OC(C)(C)C)CC1`, the melting point was 172 to 174 °C.

On to `CC(C)(C)OC(=O)N[C@H]1CC[C@H](CCN2CCN(c3nccc4c3OCC4)CC2)CC1`, for which the melting point was 141 °C.

Compound `CCOC(=O)N1CCC(Nc2nc3cccnc3n2Cc2ccco2)CC1` showed a melting point of 149 °C.

`CCCCc1nc(C(O)C(C)(C)C)c(C(N)=O)n1Cc1ccc(-c2ccccc2C(=O)O)cc1` (configuration not stated) came in with a melting point of 150 to 154 °C.

`Cc1cccc(Oc2cccc(Oc3ccc4c(c3)OCO4)c2C(=O)O)c1` registered a melting point of 169 to 172 °C.

With `Cn1cc(-c2cc(-c3cnc4ccccc4c3)ccn2)n(-c2ccc(C(C)(C)C#N)cc2)c1=O`, the melting point came to 180 °C.

Regarding `OCc1ccc(-c2ccc(-c3cn([C@H]4CN5CCC4CC5)nn3)cc2)s1`, the melting point was 234 °C.

`CCOC(=O)c1c(Cl)nc2ccccc2c1-c1ccc(F)cc1` displayed a melting point of 113 to 114 °C.

For `COC(=O)C1CC(C#N)(c2ccc(Cl)cc2)CCC1=O` (configuration not stated), the melting point fell in the range of 141 to 144 °C.

Compound `CN(c1ccccc1)c1nc(Cl)c([N+](=O)[O-])s1` displayed a melting point of 136 to 137 °C.

Regarding `N#CC1(N)CC2(OC(c3ccccc3)C(c3ccccc3)O2)C2C1C2(F)C(N)=O` (configuration not stated), the melting point was 197 °C.

Take `CC1NC(=O)CC2(C)CC1c1ccccc1O2` (configuration not stated): the melting point came to 164 °C.

Compound `CCOC(=O)C(CC(=O)c1ccc(Oc2ccccc2)cc1)SC(=O)c1ccccc1` (configuration not stated) gave a melting point of 95 to 96 °C.

`Cc1nc2n(c(=O)c1CCN1CCC(c3noc4ccccc34)CC1)CCCC2` registered a melting point of 183 °C.

On to `O=[N+]([O-])c1ccc(Cl)cc1NC1CCN(Cc2ccccc2)CC1`, for which the melting point came out at 84 °C.

The compound `Cn1nnnc1CC(=O)c1ccc(Br)cc1N` had a melting point of 159 to 160 °C.

In the case of `Cn1c(OC2CCOC2)n[nH]c1=O` (configuration not stated), the melting point came out at 164 °C.

As to `CN(C(=O)c1ccc2c(c1)nc(NC(=O)c1cccs1)n2CCCOC(=O)c1cccs1)C1CCCCC1`, the melting point is 92 to 94 °C.

For `COc1cc(=O)c2c([nH]c1=O)CC(Cl)C(Cl)C2` (configuration not stated), the melting point lay in the range of 229 to 230 °C.

`CCC(C)Nc1c(N)cc(C)c(C)c1[N+](=O)[O-]` (configuration not stated) displayed a melting point of 36 to 37 °C.

`CC(=O)c1ccc(CCCOc2c(C)cc(N3CN=C(C(F)F)O3)cc2C)nn1` registered a melting point of 95 to 96 °C.

The compound `Cc1ccc(C2(c3ccc(C)cc3)CCN=C2NC(=O)c2cc(C)n[nH]2)cc1` returned a melting point of 243 to 245 °C.

For the compound `COc1cccn(C2c3cc(S(=O)(=O)C(F)(F)F)ccc3OC(C)(C)C2O)c1=O` (configuration not stated), the melting point lay in the range of 223 to 225 °C.

`CCCSc1ccc2c3c(cccc13)C(=O)N2` yielded a melting point of 145 to 148 °C.

`Cc1cc(C)nc(Nc2ccc(OC(F)F)cc2)n1` displayed a melting point of 81 to 82 °C.

As for `COC(=O)C(C)(C)CCCCCOc1ccc(N2C(=O)c3ccccc3C2=O)cc1`, the melting point is 82 to 83 °C.

As for `Cc1ccc(C2C(=O)CC(C)(C)CC2=O)cc1`, the melting point is 200 to 202 °C.

As to `COc1ccc(C(=O)Nc2cccnc2)cc1NCc1cccs1`, the melting point lay within 154 to 155 °C.

`O=C(NCc1cccc(C(F)(F)F)c1)c1cncc2c1cnn2-c1ccc(F)cc1` had a melting point of 172 to 173 °C.

Take `COC(=O)C1Cc2cccc(OC)c2N1S(=O)(=O)c1ccc(I)cc1` (configuration not stated): the melting point turned out to be 161 °C.

`COc1cc(C2=C(C(C)(C)C)C(C)(C)CO2)cc2oc(-c3ccccc3)nc12` registered a melting point of 68.5 to 69 °C.

The compound `O=C(Cc1ccsc1)N1C(=O)OC[C@@H]1Cc1ccccc1` returned a melting point of 80 to 81 °C.

In turn, `Cc1c(CN2CCOCC2)sc2c(Br)c3ccccc3c(-c3cc(Br)c(O)c(Br)c3)c12` came in with a melting point of 237 to 240 °C.

Regarding `O=C1c2ccccc2C(=O)c2oc(-c3cccc(F)c3)nc21`, the melting point was found to be 230 °C.

For `COCCNc1c([N+](=O)[O-])cnc2ccccc12`, the melting point was in the range of 113 to 115 °C.

Take `COc1cccc(-c2cc(=O)c3cccc(C(=O)Nc4ccc(CCCCN5CCc6cc(OC)c(OC)cc6C5)cc4)c3o2)c1`: the melting point was found to be 152 °C.

In the case of `CC(C)c1cc2c(cc1CSCC(=O)O)OCO2`, the melting point lay in the range of 83 to 84 °C.

For the compound `COc1ccc(Cn2c(=O)c(NN)nc3ccc4ccccc4c32)c(OC)c1`, the melting point was in the range of 182 to 183 °C.
